Laboratory results as given in patent US11173151B2, “Substituted triazole derivatives and uses thereof” (BAYER AKTIENGESELLSCHAFT, priority 2017, dated 2021).
Where a name gives a salt, the structure may show the parent alone.

What was measured:
human V1a receptor = biological target: T1, human V1a receptor (Homo sapiens, UniProt P37288); experiment: Cellular in vitro assay for determining vasopressin receptor activity, V1a receptor cell line (CHO, aequorin luminescence); format: cell-based; details: for IC50: CHO cell line transfected with human V1a receptor, [Arg]-vasopressin at EC50 concentration, read-out: IC50 hV1a; for ratio IC50 hV2/hV1a: selectivity ratio IC50 hV2 / IC50 hV1a
T1 construct: expressed in transfected cells; host or cells: CHO K1 (ATCC), also stably transfected with a modified aequorin
How it was run: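 IC50 from inhibition of [Arg]-vasopressin (EC50 concentration)-evoked aequorin luminescence in CHO K1 cells, with 10-min compound pretreatment.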

human V2 receptor = biological target: T2, human V2 receptor (Homo sapiens, UniProt P30518); experiment: Cellular in vitro assay for determining vasopressin receptor activity, V2 receptor cell line (CHO, CRE-luciferase); format: cell-based; details: CHO cell line transfected with human V2 receptor; [Arg8]-vasopressin at EC50 concentration; read-out: IC50 hV2
T2 construct: expressed in transfected cells; host or cells: CHO K1 (ATCC) expressing firefly luciferase under a CRE-responsive promoter
T2 sequence (P30518 whole entry): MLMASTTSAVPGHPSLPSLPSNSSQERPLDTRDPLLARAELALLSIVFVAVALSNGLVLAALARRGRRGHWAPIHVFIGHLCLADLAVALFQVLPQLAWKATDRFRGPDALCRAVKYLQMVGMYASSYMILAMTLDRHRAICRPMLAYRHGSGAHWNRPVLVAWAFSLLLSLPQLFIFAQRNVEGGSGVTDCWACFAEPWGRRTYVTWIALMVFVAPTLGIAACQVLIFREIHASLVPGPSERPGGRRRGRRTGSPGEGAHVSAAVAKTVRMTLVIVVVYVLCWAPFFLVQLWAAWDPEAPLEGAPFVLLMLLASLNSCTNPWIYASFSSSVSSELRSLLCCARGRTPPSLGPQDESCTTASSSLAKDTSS

T1 sequence (P37288 whole entry): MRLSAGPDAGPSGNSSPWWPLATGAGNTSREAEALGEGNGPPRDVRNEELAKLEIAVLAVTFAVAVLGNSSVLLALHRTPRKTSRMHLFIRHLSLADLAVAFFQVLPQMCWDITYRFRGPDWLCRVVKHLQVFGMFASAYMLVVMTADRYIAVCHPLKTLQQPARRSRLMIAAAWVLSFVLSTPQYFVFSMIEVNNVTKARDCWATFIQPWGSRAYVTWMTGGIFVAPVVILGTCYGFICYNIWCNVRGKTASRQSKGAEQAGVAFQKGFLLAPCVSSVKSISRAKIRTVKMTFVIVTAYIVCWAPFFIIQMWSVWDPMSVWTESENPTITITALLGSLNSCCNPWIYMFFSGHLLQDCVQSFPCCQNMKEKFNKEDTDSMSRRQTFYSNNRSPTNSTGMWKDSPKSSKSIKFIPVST

Compound: O=C(c1ncccc1-n1cnc(Cn2nc(-c3ccc(Cl)cc3)n(C[C@H](O)C(F)(F)F)c2=O)n1)N1CCC[C@H]1C(F)(F)F [Example 450, 5-(4-Chlorophenyl)-4-[(2S)-3,3,3-trifluoro-2-hydroxypropyl]-2-{[1-(2-{[(2S)-2-(trifluoromethyl)pyrrolidin-1-yl]carbonyl}pyridin-3-yl)-1H-1,2,4-triazol-3-yl]methyl}-2,4-dihydro-3H-1,2,4-triazol-3-one]
- IC50 (human V1a receptor): 39.5 nM
- ratio IC50 hV2/hV1a (human V1a receptor): 31.6
- IC50 (human V2 receptor): 1250 nM

Compound: O=C(c1ncccc1-n1cnc(Cn2nc(-c3ccc(Cl)cc3)n(C[C@H](O)C(F)(F)F)c2=O)n1)N1CCC[C@@H]1C(F)(F)F [Example 451, 5-(4-Chlorophenyl)-4-[(2S)-3,3,3-trifluoro-2-hydroxypropyl]-2-{[1-(2-{[(2R)-2-(trifluoromethyl)pyrrolidin-1-yl]carbonyl}pyridin-3-yl)-1H-1,2,4-triazol-3-yl]methyl}-2,4-dihydro-3H-1,2,4-triazol-3-one]
- IC50 (human V1a receptor): 110 nM
- ratio IC50 hV2/hV1a (human V1a receptor): 9.3
- IC50 (human V2 receptor): 1020 nM

Compound: O=C(c1ncccc1-n1cnc(Cn2nc(-c3ccc(Cl)cc3)n(C[C@H](O)C(F)(F)F)c2=O)n1)N1CCS(=O)(=O)CC1 [Example 452, 5-(4-Chlorophenyl)-2-[(1-{2-[(1,1-dioxidothiomorpholin-4-yl)carbonyl]pyridin-3-yl}-1H-1,2,4-triazol-3-yl)methyl]-4-[(2S)-3,3,3-trifluoro-2-hydroxypropyl]-2,4-dihydro-3H-1,2,4-triazol-3-one]
- IC50 (human V1a receptor): 265 nM
- ratio IC50 hV2/hV1a (human V1a receptor): 22.3
- IC50 (human V2 receptor): 5900 nM

Compound: CC1(C)CNCCN1C(=O)c1ncccc1-n1cnc(Cn2nc(-c3ccc(Cl)cc3)n(C[C@H](O)C(F)(F)F)c2=O)n1 [Example 453, 5-(4-Chlorophenyl)-2-[(1-{2-[(2,2-dimethylpiperazin-1-yl)carbonyl]pyridin-3-yl}-1H-1,2,4-triazol-3-yl)methyl]-4-[(2S)-3,3,3-trifluoro-2-hydroxypropyl]-2,4-dihydro-3H-1,2,4-triazol-3-one-Hydrochloric Acid Salt]
- IC50 (human V1a receptor): 175 nM
- ratio IC50 hV2/hV1a (human V1a receptor): 182.9
- IC50 (human V2 receptor): 32000 nM

Compound: CN(CC1CC1)C(=O)c1ncccc1-n1cnc(Cn2nc(-c3ccc(Cl)cc3)n(C[C@H](O)C(F)(F)F)c2=O)n1 [Example 454, 3-[3-({3-(4-Chlorophenyl)-5-oxo-4-[(2S)-3,3,3-trifluoro-2-hydroxypropyl]-4,5-dihydro-1H-1,2,4-triazol-1-yl}methyl)-1H-1,2,4-triazol-1-yl]-N-(cyclopropylmethyl)-N-methylpyridine-2-carboxamide]
- IC50 (human V1a receptor): 12 nM
- ratio IC50 hV2/hV1a (human V1a receptor): 337.5
- IC50 (human V2 receptor): 4050 nM

Compound: CC1(NC(=O)c2ncccc2-n2cnc(Cn3nc(-c4ccc(Cl)cc4)n(C[C@H](O)C(F)(F)F)c3=O)n2)CC1 [Example 455, 3-[3-({3-(4-Chlorophenyl)-5-oxo-4-[(2S)-3,3,3-trifluoro-2-hydroxypropyl]-4,5-dihydro-1H-1,2,4-triazol-1-yl}methyl)-1H-1,2,4-triazol-1-yl]-N-(1-methylcyclopropyl)pyridine-2-carboxamide]
- IC50 (human V1a receptor): 4.4 nM
- ratio IC50 hV2/hV1a (human V1a receptor): 272.7
- IC50 (human V2 receptor): 1200 nM

Compound: O=C(NCC(F)(F)F)c1ncccc1-n1cnc(Cn2nc(-c3ccc(Cl)cc3)n(C[C@@H](O)C(F)(F)F)c2=O)n1 [Example 457, 3-[3-({3-(4-Chlorophenyl)-5-oxo-4-[(2R)-3,3,3-trifluoro-2-hydroxypropyl]-4,5-dihydro-1H-1,2,4-triazol-1-yl}methyl)-1H-1,2,4-triazol-1-yl]-N-(2,2,2-trifluoroethyl)pyridine-2-carboxamide]
- IC50 (human V1a receptor): 210 nM
- ratio IC50 hV2/hV1a (human V1a receptor): 25.2
- IC50 (human V2 receptor): 5300 nM

Compound: O=C(NC1CC1)c1ncccc1-n1cnc(Cn2nc(-c3ccc(Cl)cc3)n(C[C@@H](O)C(F)(F)F)c2=O)n1 [Example 458, 3-[3-({3-(4-Chlorophenyl)-5-oxo-4-[(2R)-3,3,3-trifluoro-2-hydroxypropyl]-4,5-dihydro-1H-1,2,4-triazol-1-yl}methyl)-1H-1,2,4-triazol-1-yl]-N-cyclopropylpyridine-2-carboxamide]
- IC50 (human V1a receptor): 100 nM
- ratio IC50 hV2/hV1a (human V1a receptor): 60.5
- IC50 (human V2 receptor): 6050 nM

Compound: O=C(NCC1CC1)c1ncccc1-n1cnc(Cn2nc(-c3ccc(Cl)cc3)n(C[C@@H](O)C(F)(F)F)c2=O)n1 [Example 459, 3-[3-({3-(4-Chlorophenyl)-5-oxo-4-[(2R)-3,3,3-trifluoro-2-hydroxypropyl]-4,5-dihydro-1H-1,2,4-triazol-1-yl}methyl)-1H-1,2,4-triazol-1-yl]-N-(cyclopropylmethyl)pyridine-2-carboxamide]
- IC50 (human V1a receptor): 210 nM
- ratio IC50 hV2/hV1a (human V1a receptor): 21.0
- IC50 (human V2 receptor): 4400 nM

Compound: O=C(NC1CC1(F)F)c1ncccc1-n1cnc(Cn2nc(-c3ccc(Cl)cc3)n(C[C@@H](O)C(F)(F)F)c2=O)n1 (stereo partly drawn) [Example 460, 3-[3-({3-(4-Chlorophenyl)-5-oxo-4-[(2R)-3,3,3-trifluoro-2-hydroxypropyl]-4,5-dihydro-1H-1,2,4-triazol-1-yl}methyl)-1H-1,2,4-triazol-1-yl]-N-[2,2-difluorocyclopropyl]pyridine-2-carboxamide]
- IC50 (human V1a receptor): 130 nM
- ratio IC50 hV2/hV1a (human V1a receptor): 30.4
- IC50 (human V2 receptor): 3950 nM

Compound: NC(=O)[C@@H]1CC(F)(F)CN1C(=O)c1ncccc1-n1cnc(Cn2nc(-c3ccc(Cl)cc3)n(C[C@@H](O)C(F)(F)F)c2=O)n1 [Example 461, 1-({3-[3-({3-(4-Chlorophenyl)-5-oxo-4-[(2R)-3,3,3-trifluoro-2-hydroxypropyl]-4,5-dihydro-1H-1,2,4-triazol-1-yl}methyl)-1H-1,2,4-triazol-1-yl]pyridin-2-yl}carbonyl)-4,4-difluoro-L-prolinamide]
- IC50 (human V1a receptor): 1100 nM
- ratio IC50 hV2/hV1a (human V1a receptor): 20.0
- IC50 (human V2 receptor): 22000 nM

Compound: O=C(NC1CC1F)c1ncccc1-n1cnc(Cn2nc(-c3ccc(Cl)cc3)n(C[C@@H](O)C(F)(F)F)c2=O)n1 (stereo partly drawn) [Example 462, 3-[3-({3-(4-Chlorophenyl)-5-oxo-4-[(2R)-3,3,3-trifluoro-2-hydroxypropyl]-4,5-dihydro-1H-1,2,4-triazol-1-yl}methyl)-1H-1,2,4-triazol-1-yl]-N-[2-fluorocyclopropyl]pyridine-2-carboxamide]
- IC50 (human V1a receptor): 97 nM
- ratio IC50 hV2/hV1a (human V1a receptor): 61.3
- IC50 (human V2 receptor): 5950 nM

Compound: O=C(c1ncccc1-n1cnc(Cn2nc(-c3ccc(Cl)cc3)n(C[C@@H](O)C(F)(F)F)c2=O)n1)N1CCC(F)(F)C1 [Example 463, 5-(4-Chlorophenyl)-2-[(1-{2-[(3,3-difluoropyrrolidin-1-yl)carbonyl]pyridin-3-yl}-1H-1,2,4-triazol-3-yl)methyl]-4-[(2R)-3,3,3-trifluoro-2-hydroxypropyl]-2,4-dihydro-3H-1,2,4-triazol-3-one]
- IC50 (human V1a receptor): 235 nM
- ratio IC50 hV2/hV1a (human V1a receptor): 136.2
- IC50 (human V2 receptor): 32000 nM

Compound: CC1(C)CN(C(=O)c2ncccc2-n2cnc(Cn3nc(-c4ccc(Cl)cc4)n(C[C@@H](O)C(F)(F)F)c3=O)n2)CCO1 [Example 464, 5-(4-Chlorophenyl)-2-[(1-{2-[(2,2-dimethylmorpholin-4-yl)carbonyl]pyridin-3-yl}-1H-1,2,4-triazol-3-yl)methyl]-4-[(2R)-3,3,3-trifluoro-2-hydroxypropyl]-2,4-dihydro-3H-1,2,4-triazol-3-one]
- IC50 (human V1a receptor): 60 nM
- ratio IC50 hV2/hV1a (human V1a receptor): 533.3
- IC50 (human V2 receptor): 32000 nM
